This experiment concerns Phospho-p44/42 MAP kinase (pErk2). Put plainly: Cell lysate array on evanescent field sensor platform, detection with antibody A3. It counts as cell-based, human. The settings on record: Jurkat cells, staurosporine 10 μM, 180 min.

Protocol: Human T-cell cultures (Jurkat, DMZ # ACC282) are utilized for the detection of biologically relevant protein analytes in “nature-identical” samples. These cells are cultivated at 37° C. in a solution containing RPMI 1640, 10 % FCS (fetal calf serum), 2 mM glutamine, 50 U/ml penicillin, 50 μg/ml streptamycine (cell density at about 0.5−×10^6−1.0×10^6 cells/ml).
Then the cell cultures treated as described above and the untreated cell cultures, respectively, are cooled to 4° C. and formed to pellets by centrifugation at a centrifugal force of 350×g (number of cells at about 10^7).The cells here are simply separated from the medium, without damage to the cells. […]
The fluorescence signals from the various arrays of measurement areas undergo automatic sequential measurement using a ZeptoREADER™ (Zeptosens AG, Benkenstrasse 254, CH-4108 Witterswil). […] Then, for each array, images of the fluorescence signals from the corresponding array are generated, wherein the user can select different exposure times and the number of images to be generated. In the case of measurements for the present example, the excitation wavelength is 633 nm, and the detection of the fluorescence light at the fluorescence wavelength of Cy5 is performed using a cooled camera, an interference filter (transmission 670 nm ±20 nm) for suppression of scattered light being positioned in front of the lens of the camera. […]

On to `CN[C@@H]1C[C@H]2O[C@@](C)([C@@H]1OC)n1c3ccccc3c3c4c(c5c6ccccc6n2c5c31)C(=O)NC4` [staurosporin, staurosporine], for which the “pErk2 signal of the nonstimulated control sample compared with the sample treated with staurosporin” value was “only slightly higher”.

The values above are taken from patent US20050059014A1, “Analytical platform and detection method with the analytes to be determined in a sample as immobilized specific binding partners” (priority 2002, published 2005).
